Measured values published in paper PMC10044120, “Potent and selective covalent inhibition of the papain-like protease from SARS-CoV-2” (Nature Communications, 2023).
Read-outs that look alike come from different tables or passages of the source.

Tests used:
[1] = system: SARS-CoV-2 Delta (B.1.617.2); experiment: microbe, parasite or virus in culture; type: cell-based; conditions: Severe acute respiratory syndrome coronavirus 2; Delta (B1.617.2), Caco-2
SARS-CoV-2 USA-WA1/2020 = experiment: CPE assay, neutral red, Vero E6 cells with 2 μM CP-100356, USA-WA1/2020; type: cell-based; conditions: for Percent Cytopathic Effect (Neutral Red): USA-WA1/2020
[2] = Pharmacokinetics in male ICR mice (IV and PO)
in vitro = conditions: African green monkey
[3] = male, ICR (CD-1), mouse, plasma, iv, 3 mg/kg

## COC(=O)/C=C/C(=O)NNC(=O)CCc1ccccc1C(=O)N[C@H](C)c1cccc2ccccc12 [Compound 7, methyl(R,E)-4-(2-(3-(2-((1-(naphthalen-1 yl)ethyl)carbamoyl)phenyl)propanoyl)hydrazineyl)-4-oxobut-2-enoate]
Caco-2 cells; Caco-2, Delta rows
  CC50: > 10 µM
Caco-2 cells; Caco-2, Omicron rows
  CC50: > 10 µM
[1]
  EC90: > 10 µM
SARS-CoV-2 USA-WA1/2020; Severe acute respiratory syndrome coronavirus 2, Vero C1008
  EC50: 68 nM
SARS-CoV-2 USA-WA1/2020; 0.01 µM
  Percent Cytopathic Effect (Neutral Red): 90.5%
SARS-CoV-2 USA-WA1/2020; 0.1 µM
  Percent Cytopathic Effect (Neutral Red): 41.8%
SARS-CoV-2 USA-WA1/2020; 1 µM
  Percent Cytopathic Effect (Neutral Red): 46.4%
SARS-CoV-2 USA-WA1/2020; 10 µM
  Percent Cytopathic Effect (Neutral Red): 13.5%
[2]; 10 mg/kg p.o., male ICR mice
  oral bioavailability / exposure following PO dosing: not orally bioavailable
[2]; [3]
  AUC(0-inf): 5 ng·h/mL
  AUC(0-t): 4 ng·h/mL
  C0: 63 ng/mL
  Vd: 35.2 L/kg
  half-life: 3.6 min

## C[C@@H](NC(=O)c1ccccc1CCC(=O)NNC(=O)CCl)c1cccc2ccccc12 [Compound 9, (R)-2-(3-(2-(2-chloroacetyl)hydrazineyl)-3-oxopropyl)-N-(1-(naphthalen-1-yl)ethyl)benzamide]
In vitro; CC50
  CC50 at 48 h: > 30 µM
In vitro; cytotoxicity, %cell viability
  viability at 48 h, 2.08 µM: 102%
  viability at 48 h, 8.33 µM: 99.1%
  viability at 48 h, 16.65 µM: 91.4%
